This note sets out measurements from patent US7435837B2, “Dihydrobenzofuranyl alkanamine derivatives and methods for using same” (Wyeth, priority 2003, dated 2008).

The experiment concerns the target T1, human 5-HT2C receptor (Homo sapiens, UniProt P28335).
T1 sequence (P28335 33-458): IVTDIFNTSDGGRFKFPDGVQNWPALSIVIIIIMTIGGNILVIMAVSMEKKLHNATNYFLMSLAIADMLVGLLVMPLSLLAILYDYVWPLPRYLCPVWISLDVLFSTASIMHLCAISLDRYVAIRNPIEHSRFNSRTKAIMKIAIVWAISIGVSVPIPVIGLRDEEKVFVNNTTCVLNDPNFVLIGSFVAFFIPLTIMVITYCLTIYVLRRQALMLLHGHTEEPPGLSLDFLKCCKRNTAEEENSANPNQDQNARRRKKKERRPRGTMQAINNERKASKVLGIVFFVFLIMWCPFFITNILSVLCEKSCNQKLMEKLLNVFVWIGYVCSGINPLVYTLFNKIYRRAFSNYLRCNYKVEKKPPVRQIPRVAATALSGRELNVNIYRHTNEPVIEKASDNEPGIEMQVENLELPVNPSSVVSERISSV
The experiment can be described thus: 5-HT2C receptor-stimulated calcium mobilization (FLIPR) in CHO cells.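 As to all read-outs here: Fluo-3-AM fluorescence read on FLIPR every 1 s, agonist added after 10 baseline reads, response taken as peak minus lowest raw fluorescence count.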 Format: cell-based. The settings on record: for Emax: CHO, read-out: 5-HT2C Function Emax (%); for Emax / 5-HT2C Function Emax (%): percentage of the response observed with a maximally effective concentration of 5-HT; for EC50: calcium mobilization, CHO cells stably expressing human 5-HT2C, read-out: 5-HT2C Function EC50. A general note: Calcium assays in cells follow changes in intracellular calcium, usually with a dye or a luminescent sensor.

For orientation: Emax means the maximal effect, on the per cent scale that the assay sets. Broadly, the EC50 is the concentration that produces a half-maximal response.

Consider `Fc1cc2c(c(-c3c(Cl)cccc3Cl)c1)OC(CN1CCOCC1)C2` (racemic) [Example 239, (±)-1-{[7-(2,6-dichlorophenyl)-5-fluoro-2,3-dihydro-1-benzofuran-2-yl]methyl}morpholine], for which the Emax was 40% and the EC50 was determined as 1430 nM.

Regarding `CNCC1Cc2cc(F)cc(-c3c(Cl)cccc3Cl)c2O1` (single isomer, unassigned; (+)) [Example 543, (+){[7-(2,6-dichlorophenyl)-5-fluoro-2,3-dihydro-1-benzofuran-2-yl]methyl}methylamine], the half-maximal effective concentration (EC50) amounted to 0.2 nM and the “5-HT2C Function Emax (%)” value turned out to be 100%.

As for `CNCC1Cc2cc(Cl)cc(-c3ccccc3F)c2O1` (racemic) [Example 462, (±)-[(5-chloro-7-(2-fluorophenyl)-2,3-dihydro-1-benzofuran-2-yl]methyl}methylamine], the Emax was determined as 80% and the 50% effective concentration (EC50) was found to be 79 nM.

For the compound `Fc1cc2c(c(-c3c(Cl)cccc3Cl)c1)OC(CNC1CCC1)C2` (racemic) [Example 233, (±)-N-{[7-(2,6-dichlorophenyl)-5-fluoro-2,3-dihydro-1-benzofuran-2-yl]methyl}cyclobutanamine], the Emax turned out to be 20% and the half-maximal effective concentration (EC50) stood at 614 nM.

As to `COc1cccc(-c2cc(F)cc3c2OC(CN)C3)c1OC` (single isomer, unassigned; (-)) [Example 213, (−)-{[7-(2,3-dimethoxyphenyl)-5-fluoro-2,3-dihydro-1-benzofuran-2-yl]methyl}amine], the EC50 was 9 nM and the “5-HT2C Function Emax (%)” value turned out to be 100%.

Consider `CNCC1Cc2cc(Cl)cc(-c3cc(F)ccc3F)c2O1` (racemic) [Example 470, (±)-{[5-chloro-7-(2,5-difluorophenyl)-2,3-dihydro-1-benzofuran-2-yl]methyl}methylamine], for which the Emax stood at 70% and the EC50 came to 289 nM.

Consider `CNCC1Cc2cccc(-c3c(Cl)cccc3Cl)c2O1` (single isomer, unassigned; (+)) [Example 435, (+)-{[7-(2,6-dichlorophenyl)-2,3-dihydro-1-benzofuran-2-yl]methyl}methylamine], for which the EC50 came to 82 nM and the “5-HT2C Function Emax (%)” value came out at 80%.

On to `CCNCC1Cc2cc(Cl)cc(-c3c(C)cccc3C)c2O1` (racemic) [Example 271, (±)-N-{[5-chloro-7-(2,6-dimethylphenyl)-2,3-dihydro-1-benzofuran-2-yl]methyl}ethanamine], for which the Emax is 90% and the EC50 was found to be 594 nM.

`COc1cccc(-c2cc(F)cc3c2OC(CN)C3)c1OC` (single isomer, unassigned; (+)) [Example 214, (+)-{[7-(2,3-dimethoxyphenyl)-5-fluoro-2,3-dihydro-1-benzofuran-2-yl]methyl}amine]: the EC50 amounted to 79 nM and the “5-HT2C Function Emax (%)” value is 70%.

As to `Clc1cccc(Cl)c1-c1cccc2c1OC(CNC1CC1)C2` (racemic) [Example 391, (±)-N-{[7-(2,6-dichlorophenyl)-2,3-dihydro-1-benzofuran-2-yl]methyl}cyclopropanamine], the Emax was determined as 80% and the EC50 was found to be 0.2 nM.

Take `CNCC1Cc2cccc(-c3cc(C)ccc3C)c2O1` (racemic) [Example 427, (±)-[(N-methyl-1-[7-(2,5-dimethylphenyl)-2,3-dihydro-1-benzofuran-2-yl]methanamine]: the maximal effect (Emax) came out at 80% and the EC50 came out at 298 nM.

As for `CNCC1Cc2cc(F)cc(-c3cccc(OC)c3OC)c2O1` (single isomer, unassigned; (+)) [Example 569, (+)-{[7-(2,3-dimethoxyphenyl)-5-fluoro-2,3-dihydro-1-benzofuran-2-yl]methyl}methylamine], the EC50 was 6 nM and the “5-HT2C Function Emax (%)” value was 60%.

Regarding `Fc1cc2c(c(-c3c(Cl)cccc3Cl)c1)OC(CN1CCCCC1)C2` (racemic) [Example 238, (±)-1-{[7-(2,6-dichlorophenyl)-5-fluoro-2,3-dihydro-1-benzofuran-2-yl]methyl}piperidine], the Emax was 40% and the EC50 worked out at 529 nM.

In the case of `CNCC1Cc2cc(F)cc(-c3c(Cl)cccc3Cl)c2O1` (single isomer, unassigned; (-)) [Example 544, (−){[7-(2,6-dichlorophenyl)-5-fluoro-2,3-dihydro-1-benzofuran-2-yl]methyl}methylamine], the 50% effective concentration (EC50) turned out to be 73 nM and the “5-HT2C Function Emax (%)” value is listed as 70%.

`Cc1cccc(C)c1-c1cc(Cl)cc2c1OC(CNC(C)C)C2` (racemic) [Example 272, (±)-N-{[5-chloro-7-(2,6-dimethylphenyl)-2,3-dihydro-1-benzofuran-2-yl]methyl}propan-2-amine]: the Emax was 70% and the 50% effective concentration (EC50) was found to be 845 nM.

For the compound `CNCC1Cc2cc(Cl)cc(-c3ccccc3OC)c2O1` (racemic) [Example 460, (±)-[(5-chloro-7-(2-methoxyphenyl)-2,3-dihydro-1-benzofuran-2-yl]methyl}methylamine], the maximal effect (Emax) amounted to 90% and the EC50 was 215 nM.

Consider `CNCC1Cc2cc(Cl)cc(-c3ccc(OC)cc3OC)c2O1` (racemic) [Example 469, (±)-{[5-chloro-7-(2,4-dimethoxyphenyl)-2,3-dihydro-1-benzofuran-2-yl]methyl}methylamine], for which the maximal response (Emax) is 80% and the 50% effective concentration (EC50) came to 21 nM.

As to `CNCC1Cc2cc(Cl)cc(-c3cc(Cl)ccc3OC)c2O1` (racemic) [Example 472, (±)-{[5-chloro-7-(5-chloro-2-methoxyphenyl)-2,3-dihydro-1-benzofuran-2-yl]methyl}methylamine], the Emax turned out to be 80% and the concentration giving a half-maximal response (EC50) came out at 353 nM.

Consider `CNCC1Cc2cc(Cl)cc(-c3c(C)cccc3C)c2O1` (single isomer, unassigned; (-)) [Example 564, (−)-{[5-chloro-7-(2,6-dimethylphenyl)-2,3-dihydro-1-benzofuran-2-yl]methyl}methylamine], for which the maximum response (Emax) is 90% and the EC50 was determined as 43 nM.

As for `COc1cc2c(c(-c3cc(Cl)ccc3Cl)c1)OC(CN)C2` (single isomer, unassigned; (-)) [Example 369, (−)-{[7-(2,5-dichlorophenyl)-5-methoxy-2,3-dihydro-1-benzofuran-2-yl]methyl}amine], the 50% effective concentration (EC50) worked out at 283 nM and the “5-HT2C Function Emax (%)” value was determined as 90%.

As to `CNCC1Cc2cc(F)cc(-c3cccc(OC)c3OC)c2O1` (single isomer, unassigned; (-)) [Example 568, (−)-{[7-(2,3-dimethoxyphenyl)-5-fluoro-2,3-dihydro-1-benzofuran-2-yl]methyl}methylamine], the maximal effect (Emax) came to 80% and the EC50 worked out at 4 nM.

Consider `CNCC1Cc2cc(F)cc(-c3c(C)cccc3C)c2O1` (single isomer, unassigned; (+)) [Example 558, (+)-{[7-(2,6-dimethylphenyl)-5-fluoro-2,3-dihydro-1-benzofuran-2-yl]methyl}methylamine], for which the Emax stood at 70% and the EC50 came out at 265 nM.

In the case of `Cc1cccc(C)c1-c1cc(Cl)cc2c1OC(CN1CCNCC1)C2` (racemic) [Example 279, (±)-1-{[5-chloro-7-(2,6-dimethylphenyl)-2,3-dihydro-1-benzofuran-2-yl]methyl}piperazine], the maximum response (Emax) was 70% and the EC50 was determined as 155 nM.

Regarding `CNCC1Cc2cccc(-c3cccc(F)c3F)c2O1` (racemic) [Example 437, (±)-[(N-methyl-1-[7-(2,3-difluorophenyl)-2,3-dihydro-1-benzofuran-2-yl]methanamine], the Emax turned out to be 80% and the concentration for a half-maximal effect (EC50) is 30 nM.

`CNCC1Cc2cc(Cl)cc(-c3cccc(Cl)c3Cl)c2O1` (racemic) [Example 464, (±)-{[5-chloro-7-(2,3-dichlorophenyl)-2,3-dihydro-1-benzofuran-2-yl]methyl}methylamine]: the Emax stood at 70% and the EC50 worked out at 462 nM.

`CNCC1Cc2cccc(-c3ccc(OC)cc3OC)c2O1` (racemic) [Example 426, (±)-[(N-methyl-1-[7-(2,4-dimethoxyphenyl)-2,3-dihydro-1-benzofuran-2-yl]methanamine]: the Emax amounted to 100% and the half-maximal effective concentration (EC50) worked out at 17 nM.

Consider `CNCC1Cc2cccc(-c3cc(Cl)ccc3C)c2O1` (racemic) [Example 431, (±)-[(N-methyl-1-[7-(5-chloro-2-methylphenyl)-2,3-dihydro-1-benzofuran-2-yl]methanamine], for which the Emax was 90% and the half-maximal effective concentration (EC50) worked out at 63 nM.

Consider `CC(C)NCC1Cc2cc(F)cc(-c3c(Cl)cccc3Cl)c2O1` (racemic) [Example 236, (±)-N-{[7-(2,6-dichlorophenyl)-5-fluoro-2,3-dihydro-1-benzofuran-2-yl]methyl}propan-2-amine], for which the Emax came out at 70% and the EC50 worked out at 123 nM.

For `Cc1cccc(C)c1-c1cc(Cl)cc2c1OC(CNC1CC1)C2` (racemic) [Example 267, (±)-N-{[5-chloro-7-(2,6-dimethylphenyl)-2,3-dihydro-1-benzofuran-2-yl]methyl}cyclopropanamine], the Emax worked out at 80% and the concentration giving a half-maximal response (EC50) was determined as 730 nM.

`NCC1Cc2cccc(-c3cccc(F)c3F)c2O1` (racemic) [Example 160, (±)-{[7-(2,3-difluorophenyl)-2,3-dihydro-1-benzofuran-2-yl]methyl}amine]: the Emax worked out at 100% and the half-maximal effective concentration (EC50) worked out at 32 nM.
